Reference: US8309144B2, “Use of a cruciferous protein hydrolysate as a depigmentation agent or for a cosmetic and/or pharmaceutical composition” (ISP Investments Inc., priority 2004, dated 2012)

Test system: melanin in the epidermis of ex vivo skin
Experiment: Whitening effect on ex vivo skin, Fontana-Masson staining with image analysis of luminosity histograms (Example 5)
Type: cell-based, human
Description: Comparative studies were conducted using 1% of a non fermented rapeseed peptide hydrolysate for 72 hours, or 1% arbutin, known for its whitening effect, or a combination of both on ex vivo skin.
Skin biopsies are prepared as described in example 2. Four different conditions are tested: • Condition 1: control, no active ingredient is applied • Condition 2: Arbutin 1% is applied twice a day over a period of 72 hours • Condition 3: non fermented rapeseed extract is applied twice a day over a period of 72 hours • Condition 4: a combination of 1% of a non fermented rapeseed extract and 0.5% arbutin is applied twice a day over a period of 72 hours
A quantitative evaluation of the presence of melanin in the epidermis of the skin samples is carried out histologically, under an optical microscope, using the Fontana-Masson staining method as described in example 2.
To confirm visual observations and quantify the results, image analysis was performed using several image processing steps and analysis of luminosity histograms.
All date were normalized to the length of the basal layer within a given histological section.

SMILES: OC[C@H]1O[C@@H](Oc2ccc(O)cc2)[C@H](O)[C@@H](O)[C@@H]1O [arbutin]
- decrease in melanin content (normalized integrated values of histograms) (ex vivo skin, 1%, 72 hours): 32%
- melanin content, visual observation (in words) (ex vivo skin, 1%, 72 hours): significant decrease in melanin content
- % of decrease (melanin content vs control) (ex vivo skin, applied twice a day over 72 hours, 1% (combination 1%/0.5%)): −31.8%
- Area under curve (luminosity histogram) (ex vivo skin, applied twice a day over 72 hours, 1% (combination 1%/0.5%), control 54517): 46247
- Area/length (normalized to length of basal layer, applied twice a day over 72 hours, control 66.78): 45.53 l/micron
